Results: ChEMBL document CHEMBL1759984, “Synthesis and structure-activity relationships of phenylpropanoid amides of serotonin on tyrosinase inhibition” (Bioorg Med Chem Lett, 2011)

How the values were obtained:
[1] = biological target: T1, Tyrosinase (Agaricus bisporus, UniProt O42713)
T1 sequence (O42713 whole entry): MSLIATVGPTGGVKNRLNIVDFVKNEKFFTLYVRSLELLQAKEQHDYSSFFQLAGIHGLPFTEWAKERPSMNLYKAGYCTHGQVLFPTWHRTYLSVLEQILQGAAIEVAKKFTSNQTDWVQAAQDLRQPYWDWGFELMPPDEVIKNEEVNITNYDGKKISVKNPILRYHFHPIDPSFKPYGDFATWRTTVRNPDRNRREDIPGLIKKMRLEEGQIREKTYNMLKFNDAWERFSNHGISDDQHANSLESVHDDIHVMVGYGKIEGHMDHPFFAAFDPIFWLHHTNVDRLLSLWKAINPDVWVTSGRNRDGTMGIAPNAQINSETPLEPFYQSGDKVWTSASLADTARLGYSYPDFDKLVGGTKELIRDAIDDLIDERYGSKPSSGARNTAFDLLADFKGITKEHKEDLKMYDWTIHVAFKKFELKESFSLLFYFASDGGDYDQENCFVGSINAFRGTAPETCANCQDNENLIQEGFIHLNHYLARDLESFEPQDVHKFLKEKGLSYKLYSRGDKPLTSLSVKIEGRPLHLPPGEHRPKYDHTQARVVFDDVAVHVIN
Description: Inhibition of mushroom tyrosinase after 25 mins by spectrophotometry

[2] = test system: Radical scavenging activity
Description: Antioxidant activity assessed as DPPH radical scavenging activity by spectrophotometry

IC50 [1]	EC50 [2]	SMILES
> 350 µM	38.3 µM	O=C(O)CCC(=O)NCCc1c[nH]c2ccc(O)cc12 [BUFOBUTANOIC ACID]
23.8 µM	34.2 µM	COc1ccc(/C=C/C(=O)NCCc2c[nH]c3ccc(O)cc23)cc1 [N-P-METHOXY CINNAMOYL SEROTONIN]
322 µM	28.1 µM	COc1ccc(/C=C/C(=O)NCCc2c[nH]c3ccc(O)cc23)cc1OC [N-3,4-DIMETHOXY CINNAMOYL SEROTONIN]
5.4 µM	35.1 µM	COc1ccc(/C=C/C(=O)NCCc2c[nH]c3ccc(O)cc23)cc1O [N-ISOFERULOYL SEROTONIN]
121 µM	> 250 µM	O=C(O)/C=C/c1ccc(O)cc1 [COUMARIC ACID]
278 µM	19.4 µM	O=C(/C=C/c1ccc(O)c(O)c1)NCCc1c[nH]c2ccc(O)cc12 [N-CAFFEOYLSEROTONIN]
8 µM	22.8 µM	COc1cc(/C=C/C(=O)NCCc2c[nH]c3ccc(O)cc23)ccc1O [N-FERULOYL SEROTONIN]
> 350 µM	> 250 µM	COc1cc(/C=C/C(=O)O)ccc1O [FERULATE]

Second part, the compound before the results:

SMILES	IC50 [1]	EC50 [2]
COc1cc(/C=C/C(=O)NCCc2c[nH]c3ccc(O)cc23)cc(OC)c1O [N-SINAPOYL SEROTONIN]	> 350 µM	30.7 µM
COc1ccc(/C=C/C(=O)O)cc1 [4-METHOXYCINNAMIC ACID]	> 350 µM	> 250 µM
NCCc1c[nH]c2ccc(O)cc12 [SEROTONIN]	> 350 µM	> 250 µM
O=C(/C=C/c1ccc(O)cc1)NCCc1c[nH]c2ccc(O)cc12 [N-P-COUMAROYL SEROTONIN]	8.8 µM	24.7 µM
O=C(/C=C/c1ccccc1)NCCc1c[nH]c2ccc(O)cc12 [N-CINNAMOYL SEROTONIN]	40.4 µM	22.2 µM
COc1cc(/C=C/C(=O)O)cc(OC)c1O [SINAPINATE]	> 351 µM	> 250 µM
